Measured values published in patent US6706663B2, “Herbicidal 3-heterocyclic substituted benzisothiazole and benzisoxazole compounds” (Wyeth, priority 2000, dated 2004).

Experiments:
[1] = tested on: ABUTH (Abutilon theophrasti); assay: Postemergence herbicidal evaluation; type: in vivo, Medic.; conditions: postemergence
Procedure: (§1) In the tests, seedling plants are grown in jiffy flats for about two weeks. […] After spraying, the plants are placed on greenhouse benches and are cared for in accordance with conventional greenhouse procedures. From four to five weeks after treatment, the seedling plants are examined and rated according to the rating system set forth below. Where more than one test is involved for a given compound, the data are averaged.
(§2) Results of herbicide evaluation are expressed on a rating scale (0-9). The scale is based upon a visual observation of plant stand, vigor, malformation, size, chlorosis and overall plant appearance as compared with a control.

[2] = tested on: AMBEL (Ambrosia artemisifolia); assay: Postemergence herbicidal evaluation; type: in vivo, L.; conditions: postemergence
Procedure: as §1, §2

[3] = tested on: CASOB (Cassia obtusifolia); assay: Postemergence herbicidal evaluation; type: in vivo, L.; conditions: postemergence
Procedure: as §1, §2

[4] = tested on: CHEAL (Chenopodium album); assay: Postemergence herbicidal evaluation; type: in vivo, L.; conditions: postemergence
Procedure: as §1, §2

[5] = tested on: GALAP (Galium aparine); assay: Postemergence herbicidal evaluation; type: in vivo; conditions: postemergence
Procedure: as §1, §2

[6] = tested on: IPOHE (Ipomoea hederacea); assay: Postemergence herbicidal evaluation; type: in vivo, (L.) Jacq.; conditions: postemergence
Procedure: as §1, §2

[7] = tested on: ECHCG (Echinochloa crus-galli); assay: Postemergence herbicidal evaluation; type: in vivo, (L.) Beau; conditions: postemergence
Procedure: as §1, §2

[8] = tested on: SETVI (Setaria viridis); assay: Postemergence herbicidal evaluation; type: in vivo, (L.) Beau; conditions: postemergence
Procedure: In the tests, seedling plants are grown in jiffy flats for about two weeks. The test compounds are dispersed in 50/50 acetone/water mixtures containing 0.5% TWEEN® 20, a polyoxyethylene sorbitan monolaurate surfactant of Atlas Chemical Industries, in sufficient quantities to provide the equivalent of about 0.0040 kg to 1.000 kg per hectare of active compound when applied to the plants through a spray nozzle operating at 40 psi for a predetermined time. After spraying, the plants are placed on greenhouse benches and are cared for in accordance with conventional greenhouse procedures. From four to five weeks after treatment, the seedling plants are examined and rated according to the rating system set forth below. Where more than one test is involved for a given compound, the data are averaged.
as §2

[9] = tested on: GLXMAW (Soybean, Williams); assay: Postemergence herbicidal evaluation; type: in vivo, Glycine max, (L.) Merr. cv Williams; conditions: postemergence
Procedure: as §1, §2

[10] = tested on: ORYSAT (Rice, Tebonnet); assay: Postemergence herbicidal evaluation; type: in vivo, Oryza sativa, (L.) Tebonnet; conditions: postemergence
Procedure: as §1, §2

[11] = tested on: TRZAWR (Wheat, Winter, cv Riband); assay: Postemergence herbicidal evaluation; type: in vivo, Triticum aestivum; conditions: postemergence
Procedure: as §1, §2

[12] = tested on: ZEAMX (Corn, Field); assay: Postemergence herbicidal evaluation; type: in vivo, Zea mays, L.; conditions: postemergence
Procedure: as §1, §2

[13] = tested on: ABUTH (Abutilon theophrasti); assay: Preemergence herbicidal evaluation; type: in vivo, Medic.; conditions: Rate 0.0620 kg/ha; rated 4-5 weeks after treatment
Source text: as §2
(§3) The preemergence herbicidal activity of the test compounds of the present invention is exemplified by the following tests in which the seeds of a variety of monocotyledonous and dicotyledonous plants are separately mixed with potting soil and planted on top of approximately one inch of soil in separate pint cups. […] The treated cups are then placed on greenhouse benches, watered and cared for in accordance with conventional greenhouse procedures. From four to five weeks after treatment, the tests are terminated and each cup is examined and rated according to the rating system provided in Example 87. The plant species used and the compounds evaluated are the same as those shown in Example 87.

[14] = tested on: AMBEL (Ambrosia artemisifolia); assay: Preemergence herbicidal evaluation; type: in vivo, L.; conditions: Rate 0.0620 kg/ha; rated 4-5 weeks after treatment
Source text: as §2, §3

[15] = tested on: CASOB (Cassia obtusifolia); assay: Preemergence herbicidal evaluation; type: in vivo, L.; conditions: Rate 0.0620 kg/ha; rated 4-5 weeks after treatment
Source text: as §2, §3

[16] = tested on: CHEAL (Chenopodium album); assay: Preemergence herbicidal evaluation; type: in vivo, L.; conditions: Rate 0.0620 kg/ha; rated 4-5 weeks after treatment
Source text: as §2, §3

[17] = tested on: GALAP (Galium aparine); assay: Preemergence herbicidal evaluation; type: in vivo; conditions: Rate 0.0620 kg/ha; rated 4-5 weeks after treatment
Source text: as §2, §3

[18] = tested on: IPOHE (Ipomoea hederacea); assay: Preemergence herbicidal evaluation; type: in vivo, (L.) Jacq.; conditions: Rate 0.0620 kg/ha; rated 4-5 weeks after treatment
Source text: as §2, §3

[19] = tested on: ECHCG (Echinochloa crus-galli); assay: Preemergence herbicidal evaluation; type: in vivo, (L.) Beau; conditions: Rate 0.0620 kg/ha; rated 4-5 weeks after treatment
Source text: as §2, §3

[20] = tested on: SETVI (Setaria viridis); assay: Preemergence herbicidal evaluation; type: in vivo, (L.) Beau; conditions: Rate 0.0620 kg/ha; rated 4-5 weeks after treatment
Source text: as §2, §3

[21] = tested on: GLXMAW (Soybean, Williams); assay: Preemergence herbicidal evaluation; type: in vivo, Glycine max, (L.) Merr. cv Williams; conditions: Rate 0.0620 kg/ha; rated 4-5 weeks after treatment
Source text: as §2, §3

[22] = tested on: ORYSAT (Rice, Tebonnet); assay: Preemergence herbicidal evaluation; type: in vivo, Oryza sativa, (L.) Tebonnet; conditions: Rate 0.0620 kg/ha; rated 4-5 weeks after treatment
Source text: as §2, §3

[23] = tested on: TRZAWR (Wheat, Winter, cv Riband); assay: Preemergence herbicidal evaluation; type: in vivo, Triticum aestivum; conditions: Rate 0.0620 kg/ha; rated 4-5 weeks after treatment
Source text: as §2, §3

[24] = tested on: ZEAMX (Corn, Field); assay: Preemergence herbicidal evaluation; type: in vivo, Zea mays, L.; conditions: Rate 0.0620 kg/ha; rated 4-5 weeks after treatment
Source text: as §2, §3

[25] = tested on: ECHORC (Echinochloa oryzoides); assay: Flooded paddy, preemergence weed control; type: in vivo, Echinochloa oryzoides (Ard.) Fritsch.; conditions: rated 3-4 weeks after treatment, 0-9 rating scale
Procedure: as §2
(§4) Preemergence herbicidal activity under flooded paddy conditions is determined as follows: plant seeds or propagating organs are planted in the top 0.5 cm of silt loam soil in 32 oz. plastic containers with a diameter of 10.5 cm and no drainage holes. Water is added to these containers and maintained at 1.5 to 3 cm above the soil surface for the duration of the experiment. […] The treated containers are placed on greenhouse benches and cared for in accordance with conventional greenhouse procedures.

[26] = tested on: CYPIR (Cyperus iria); assay: Flooded paddy, preemergence weed control; type: in vivo; conditions: rated 3-4 weeks after treatment, 0-9 rating scale
Procedure: as §2, §4

[27] = tested on: MOOVA (Monochoria vaginalis); assay: Flooded paddy, preemergence weed control; type: in vivo, Presl.; conditions: rated 3-4 weeks after treatment, 0-9 rating scale
Procedure: as §2, §4

[28] = tested on: SAGPY (Sagittaria pygmaea); assay: Flooded paddy, preemergence weed control; type: in vivo, L.; conditions: rated 3-4 weeks after treatment, 0-9 rating scale
Procedure: as §2, §4

[29] = tested on: ORYSAT (Rice, Tebonnet); assay: Flooded paddy, post-transplant rice tolerance; type: in vivo, Oryza sativa, (L.) Tebonnet; conditions: flooded paddy, post-transplant rice, rated 3-4 weeks after treatment, 0-9 rating scale
Procedure: as §2
The tolerance of transplanted rice to post-transplanted herbicide application is determined as follows: two ten-day-old rice seedlings (cv. Tebonnet) are transplanted into silt loam soil in 32 oz. plastic containers with a diameter of 10.5 cm and no drainage holes. After transplanting, the containers are flooded and the water level is maintained at 1.5 to 3 cm above the soil surface. […] The treated containers are placed on greenhouse benches, watered such that the water level is maintained as stated above, and cared for in accordance with conventional greenhouse procedures.

C[C@@H]1OC(c2nsc3cc(F)c(-n4c(=O)cc(C(F)(F)F)n(C)c4=O)cc23)O[C@@H]1C (stereo partly drawn) [Compound 63, 3-[3-[(4R,5S)-4,5-dimethyl-1,3-dioxolan-2-yl]-6-fluoro-1,2-benzisothiazol-5-yl]-1-methyl-6-(trifluoromethyl)uracil]
ABUTH herbicidal rating ([1]; rate 0.0320 kg/ha): 9.0
ABUTH herbicidal rating ([1]; rate 0.0620 kg/ha): 9.0
AMBEL herbicidal rating ([2]; rate 0.0320 kg/ha): 9.0
AMBEL herbicidal rating ([2]; rate 0.0620 kg/ha): 9.0
CASOB herbicidal rating ([3]; rate 0.0320 kg/ha): 9.0
CASOB herbicidal rating ([3]; rate 0.0620 kg/ha): 9.0
CHEAL herbicidal rating ([4]; rate 0.0320 kg/ha): 9.0
CHEAL herbicidal rating ([4]; rate 0.0620 kg/ha): 9.0
GALAP herbicidal rating ([5]; rate 0.0320 kg/ha): 9.0
GALAP herbicidal rating ([5]; rate 0.0620 kg/ha): 9.0
IPOHE herbicidal rating ([6]; rate 0.0320 kg/ha): 9.0
IPOHE herbicidal rating ([6]; rate 0.0620 kg/ha): 9.0
ECHCG herbicidal rating ([7]; rate 0.0320 kg/ha): 6.0
ECHCG herbicidal rating ([7]; rate 0.0620 kg/ha): 7.0
SETVI herbicidal rating ([8]; rate 0.0320 kg/ha): 7.0
SETVI herbicidal rating ([8]; rate 0.0620 kg/ha): 9.0
GLXMAW herbicidal rating ([9]; rate 0.0320 kg/ha): 6.5
GLXMAW herbicidal rating ([9]; rate 0.0620 kg/ha): 9.0
ORYSAT herbicidal rating ([10]; rate 0.0320 kg/ha): 5.0
ORYSAT herbicidal rating ([10]; rate 0.0620 kg/ha): 6.0
TRZAWR herbicidal rating ([11]; rate 0.0320 kg/ha): 5.0
TRZAWR herbicidal rating ([11]; rate 0.0620 kg/ha): 6.0
ZEAMX herbicidal rating ([12]; rate 0.0320 kg/ha): 5.5
ZEAMX herbicidal rating ([12]; rate 0.0620 kg/ha): 6.0
Preemergence herbicidal rating ABUTH [13]: 9.0
Preemergence herbicidal rating AMBEL [14]: 9.0
Preemergence herbicidal rating CASOB [15]: 9.0
Preemergence herbicidal rating CHEAL [16]: 9.0
Preemergence herbicidal rating GALAP [17]: 9.0
Preemergence herbicidal rating IPOHE [18]: 9.0
Preemergence herbicidal rating ECHCG [19]: 9.0
Preemergence herbicidal rating SETVI [20]: 9.0
Preemergence herbicidal rating GLXMAW [21]: 9.0
Preemergence herbicidal rating ORYSAT [22]: 8.0
Preemergence herbicidal rating TRZAWR [23]: 7.0
Preemergence herbicidal rating ZEAMX [24]: 8.0
herbicidal rating, ECHORC ([25]; rate 0.0080 kg/ha): 9.0
herbicidal rating, ECHORC ([25]; rate 0.0320 kg/ha): 9.0
herbicidal rating, ECHORC ([25]; rate 0.1250 kg/ha): 9.0
herbicidal rating, CYPIR ([26]; rate 0.0080 kg/ha): 4.0
herbicidal rating, CYPIR ([26]; rate 0.0320 kg/ha): 9.0
herbicidal rating, CYPIR ([26]; rate 0.1250 kg/ha): 9.0
herbicidal rating, MOOVA ([27]; rate 0.0080 kg/ha): 3.0
herbicidal rating, MOOVA ([27]; rate 0.0320 kg/ha): 9.0
herbicidal rating, MOOVA ([27]; rate 0.1250 kg/ha): 9.0
herbicidal rating, SAGPY ([28]; rate 0.0080 kg/ha): 3.0
herbicidal rating, SAGPY ([28]; rate 0.0320 kg/ha): 7.0
herbicidal rating, SAGPY ([28]; rate 0.1250 kg/ha): 9.0
herbicidal rating, ORYSAT (rice tolerance) ([29]; rate 0.0080 kg/ha): 7.0
herbicidal rating, ORYSAT (rice tolerance) ([29]; rate 0.0320 kg/ha): 9.0
herbicidal rating, ORYSAT (rice tolerance) ([29]; rate 0.1250 kg/ha): 9.0
